Results from US10266549B2, “ULK1 inhibitors and methods using same” (SALK INSTITUTE FOR BIOLOGICAL STUDIES, priority 2014, dated 2019).

Experiments:
A549 lung cancer cells [1] = assay: Cyto-ID autophagy detection in A549 cells; format: cell-based; details: A549, 5 μM for 2 hr then 4 μM AZD8055 for 24 hr
Method: FIG. 9E is an immunoflourescence imaging of A549 cells treated in the presence or absence of 5 μM compound 14 for 2 hr followed by 4 μM of the mTOR catalytic inhibitor AZD8055 for 24 hr. Autophagic vacuoles were detected using the Cyto-ID autophagy detection kit and are visualized in green, while cell nuclei were counterstained by DAPI and are visualized in blue.
To test the ability of compound 14 to block autophagy and cell survival, initial studies were performed in A549 lung cancer cells, which are highly sensitive to mTOR inhibition. […] Next, we genetically assessed the requirement for ULK1 versus other kinases inhibited by compound 14 to induce autophagy after pharmacological mTOR inhibition. A robust high-throughput microscopy method for quantifying GFP-LC3 puncta was established using a PC3 prostate-cancer cell line stably expressing a GFP-LC3 construct. Using this assay, we performed a focused RNAi analysis of the top 20 kinases identified in the DiscovRx screen as best binding to compound 14. […] Strikingly, of the 18 kinases tested, only one kinase siRNA, ULK1, nearly fully abolished the LC3 puncta induced by the mTOR inhibitors (FIG. 9D).

WT ULK1 = WT ULK1 (Homo sapiens (Human), UniProt O75385); assay: in vitro kinase assay, WT ULK1, MBP substrate, radiolabeled ATP; format: biochemical; details: 10-μM MBP, 30-μM γ-32P-ATP; triplicate, ten-dose, 3-fold serial dilution from 1 μM
Method: (§1) WT ULK1 (left) and WT ULK2 (right) were assayed using 10-μM MBP in the presence of 30-μM radiolabeled γ-^32P-ATP.
(§2) To further examine how ULK1 regulates autophagy, we sought to identify small molecule ATP competitive kinase inhibitors of ULK1. Screening a library of chemical compounds for inhibitors of ULK1 kinase activity in vitro, we identified a lead compound that was further elaborated through a medicinal chemistry effort to produce compound 14. […] To further characterize the ability of compound 14 and related derivatives to inhibit ULK1 in cells, we tested the ability of these compounds to inhibit the phosphorylation of Vps34 Ser249 when epitope-tagged Vps34 was co-expressed in HEK293T cells with a wild-type ULK1 cDNA. Screening 40 compounds, we found compound 14 inhibited P-Vps34 on overexpressed Vps34 when used at ˜5 μM (FIG. 7B). We next examined the sensitivity of phosphorylation of Vps34 Serine 249 versus Beclin Serine 15 to two structurally distinct ULK1 inhibitors, when cDNAs bearing each were introduced into HEK293T cells. […] (FIG. 11A).

A549 lung cancer cells [2] = assay: AnnexinV apoptosis analysis in A549 cells with mTOR inhibitor; format: cell-based
Method: (§3) A549 cells (ATCC #CCL185) and MEFs were seeded at a concentration of 2.5×10^5 cells/mL (i.e., 750,000 cells per 6 cm dish), grown overnight (18 hrs) and treated as indicted in the figure legends. Unless otherwise indicated, “starvation” is EBSS and “control” is DMEM with full serum for indicated timepoints. Samples for western blot were washed once in 1× ice cold PBS and lysed in boiling SDS lysis buffer (10 mM Tris […], 100 mM NaCl, 1% SDS). After trituration, lysates were equilibrated for protein levels using the BCA method (Pierce) and resolved on 8 to 15% SDS-PAGE gels, depending on the size of the protein. PVDF membranes were probed with indicated antibodies overnight according to the manufacturers instructions.
(§4) For flow cytometry analysis, cells were collected at the appropriate time point, washed once in PBS, trypsinized and pelleted. For Annexin V staining, cells were washed in 1× Annexin V buffer and treated as described by the Annexin V staining protocol (BD Pharmingen, San Diego, Calif.). Briefly, cells were resuspended in Annexin V buffer to a concentration of one million per mL, 100,000 cells were then stained with 5 μL of phycoerythrin (PE)-conjugated Annexin V antibody (BD Pharmingen, San Diego, Calif.) and 5 μL of 7-amino-actinomycin D (7AAD) and then incubated at room temperature for 15 minutes. 400 μL of Annexin V buffer was then added to each sample with gentle mixing. Stained cells were analyzed using a FACScan flow cytometer (Becton Dickinson, San Jose, Calif.). Flow cytometry data was analyzed using FlowJo 8.6 software (Tree Star Inc., Ashland, Oreg.).
There has been great interest in the role of autophagy in the survival of tumor cells, particular tumor cells faced with metabolic stress from chemotherapies or targeted therapeutics. We next examined whether compound 14 would promote apoptosis in tumor cells similar to the MEFs, selectively under conditions in which autophagy is actively engaged. […] Given that mTOR activity is a dominant regulator of ULK1 activity, and we previously noted that treatment of cells with mTOR catalytic inhibitors was sufficient to induce ULK1 activity, we examined the effect of adding in the ULK1 inhibitor in the context of treatment with mTOR catalytic inhibitors. Using a cell line well-established to be sensitive to mTORC1 inhibition, A549 lung cancer cells, we treated with escalating doses of ULK1 inhibitor while keeping a constant cytostatic growth arrest-inducing 1 micromolar dose of the mTOR catalytic inhibitor AZD8055. We observed that 5 μM compound 14 in combination with AZD8055 triggered apoptosis in 22% of A549 cells compared to 9% of the 5 μM compound 14 alone or 6% of those cells treated with AZD8055 alone. […]

MEFs = assay: AnnexinV apoptosis analysis in nutrient-deprived MEFs; format: cell-based, mouse
Method: as §3
For flow cytometry analysis, cells were collected at the appropriate time point, washed once in PBS, trypsinized and pelleted. For Annexin V staining, cells were washed in 1× Annexin V buffer and treated as described by the Annexin V staining protocol (BD Pharmingen, San Diego, Calif.). […] Stained cells were analyzed using a FACScan flow cytometer (Becton Dickinson, San Jose, Calif.). Flow cytometry data was analyzed using FlowJo 8.6 software (Tree Star Inc., Ashland, Oreg.). […]

ULK1 = ULK1 (Homo sapiens (Human), UniProt O75385); assay: ULK1 inhibition assay (Table 1); format: biochemical; details: * = tested as a mixture of regioisomers
U87MG glioblastoma cells = assay: AnnexinV apoptosis in U87MG cells; format: cell-based; details: selectively in the nutrient-starved state
Method: as §4
There has been great interest in the role of autophagy in the survival of tumor cells, particular tumor cells faced with metabolic stress from chemotherapies or targeted therapeutics. We next examined whether compound 14 would promote apoptosis in tumor cells similar to the MEFs, selectively under conditions in which autophagy is actively engaged. […]

WT ULK2 = WT ULK2 (Homo sapiens (Human), UniProt Q8IYT8); assay: in vitro kinase assay, WT ULK2, MBP substrate, radiolabeled ATP; format: biochemical; details: 10-μM MBP, 30-μM γ-32P-ATP; triplicate, ten-dose, 3-fold serial dilution from 1 μM
Method: as §1, §2

Chain of WT ULK2 (Q8IYT8 whole entry): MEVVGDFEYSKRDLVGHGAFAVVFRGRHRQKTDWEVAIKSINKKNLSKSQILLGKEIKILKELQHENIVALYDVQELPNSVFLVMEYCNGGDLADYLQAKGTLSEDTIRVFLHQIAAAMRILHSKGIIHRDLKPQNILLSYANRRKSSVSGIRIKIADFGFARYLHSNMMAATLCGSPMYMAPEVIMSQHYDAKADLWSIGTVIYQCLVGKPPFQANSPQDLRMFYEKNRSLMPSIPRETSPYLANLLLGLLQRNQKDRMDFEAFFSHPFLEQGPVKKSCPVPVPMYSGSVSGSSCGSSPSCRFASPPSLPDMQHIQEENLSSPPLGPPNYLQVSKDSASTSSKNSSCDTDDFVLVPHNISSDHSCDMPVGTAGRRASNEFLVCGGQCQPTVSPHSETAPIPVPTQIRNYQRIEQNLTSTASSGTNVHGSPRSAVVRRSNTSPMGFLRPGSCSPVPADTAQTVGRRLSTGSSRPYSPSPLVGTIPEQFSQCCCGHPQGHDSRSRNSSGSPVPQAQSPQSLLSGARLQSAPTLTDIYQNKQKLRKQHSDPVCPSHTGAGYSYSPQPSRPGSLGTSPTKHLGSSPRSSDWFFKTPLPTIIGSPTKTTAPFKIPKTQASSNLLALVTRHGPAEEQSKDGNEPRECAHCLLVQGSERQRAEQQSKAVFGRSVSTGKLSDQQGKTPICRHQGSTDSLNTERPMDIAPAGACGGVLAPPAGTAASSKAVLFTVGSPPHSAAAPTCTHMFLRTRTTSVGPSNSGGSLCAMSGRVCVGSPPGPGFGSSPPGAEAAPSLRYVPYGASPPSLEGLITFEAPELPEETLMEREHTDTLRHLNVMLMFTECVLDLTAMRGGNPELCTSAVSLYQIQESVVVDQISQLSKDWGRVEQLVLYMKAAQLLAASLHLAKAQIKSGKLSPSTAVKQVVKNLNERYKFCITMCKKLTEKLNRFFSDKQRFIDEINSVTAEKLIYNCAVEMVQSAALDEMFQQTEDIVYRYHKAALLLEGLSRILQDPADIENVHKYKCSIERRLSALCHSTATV
Chain of ULK1 (O75385 whole entry, species assumed): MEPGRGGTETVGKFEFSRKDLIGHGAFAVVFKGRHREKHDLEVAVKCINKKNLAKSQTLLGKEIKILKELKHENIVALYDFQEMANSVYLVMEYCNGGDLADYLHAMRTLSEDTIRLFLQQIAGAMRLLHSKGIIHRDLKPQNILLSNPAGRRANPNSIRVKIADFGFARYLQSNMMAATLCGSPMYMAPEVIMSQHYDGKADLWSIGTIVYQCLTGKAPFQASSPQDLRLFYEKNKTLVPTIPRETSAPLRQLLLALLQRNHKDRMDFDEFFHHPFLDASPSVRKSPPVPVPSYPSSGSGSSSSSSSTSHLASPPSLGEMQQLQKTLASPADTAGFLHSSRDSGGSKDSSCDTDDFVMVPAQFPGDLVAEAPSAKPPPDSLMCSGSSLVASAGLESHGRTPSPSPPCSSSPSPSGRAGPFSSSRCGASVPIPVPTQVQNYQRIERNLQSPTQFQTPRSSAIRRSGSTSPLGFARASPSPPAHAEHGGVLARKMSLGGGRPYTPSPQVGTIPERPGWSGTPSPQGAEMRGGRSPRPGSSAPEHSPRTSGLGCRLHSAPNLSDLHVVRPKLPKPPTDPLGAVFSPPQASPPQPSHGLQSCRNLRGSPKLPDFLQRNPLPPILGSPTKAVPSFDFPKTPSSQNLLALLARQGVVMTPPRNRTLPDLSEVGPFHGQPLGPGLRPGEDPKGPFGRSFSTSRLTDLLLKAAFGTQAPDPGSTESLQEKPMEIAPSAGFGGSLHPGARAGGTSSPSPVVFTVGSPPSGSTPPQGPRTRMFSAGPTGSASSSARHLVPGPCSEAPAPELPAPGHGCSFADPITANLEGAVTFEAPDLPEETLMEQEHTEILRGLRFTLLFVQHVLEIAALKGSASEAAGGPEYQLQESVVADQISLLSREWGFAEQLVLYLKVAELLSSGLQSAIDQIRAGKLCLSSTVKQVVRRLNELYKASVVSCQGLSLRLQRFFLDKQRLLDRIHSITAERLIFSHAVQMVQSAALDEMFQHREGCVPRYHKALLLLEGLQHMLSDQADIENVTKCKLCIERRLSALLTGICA
Chain of WT ULK1 (O75385 whole entry): as the sequence (O75385 whole entry, species assumed) above

CNC(=O)c1ccccc1Nc1nc(Nc2cc(OC)c(OC)c(OC)c2)ncc1Br [compound 14, 2-(5-bromo-2-(3,4,5-trimethoxyphenylamino)pyrimidin-4-ylamino)-N-methylbenzamide]
AZD8055-induced autophagy (Cyto-ID autophagy dye accumulation) (A549 lung cancer cells [1]): strongly suppressed | IC50 (WT ULK1): 0.107 µM | apoptosis, % of A549 cells (A549 lung cancer cells [2]; 5 μM compound 14 alone): 9% | apoptosis, % of A549 cells (A549 lung cancer cells [2]; 5 μM compound 14 in combination with 1 micromolar AZD8055): 22% | induction of Annexin-V+ apoptotic A549 cells (A549 lung cancer cells [2]; 10 or 20 μM compound 14 with AZD8055): even more dramatically heightened | AnnexinV positive cells (MEFs; MEFs, 24 h after amino-acid deprivation): 50% | cell death (MEFs; glucose-deprived MEFs): promoted cell death | IC50 (ULK1): < 200 nM | apoptosis (AnnexinV+ cells) (U87MG glioblastoma cells): promoted apoptosis | IC50 (WT ULK2): 0.711 µM
